From US20260176319A1, “PEPTIDE ANALOGS AND METHODS OF USING THE SAME” (Kallyope, Inc., priority 2024, published 2026)
≈ marks a conversion by molar mass, not a printed value. Where two headings read alike, the source gives them in different places. Starred links: 1 amine or outer side, 2 acyl side, 3 side chain; linkers in the order of their positions; H or OH if unused. Non-standard residues stand in square brackets, D forms with d. Residues, ends and D or L forms follow the SMILES beside them. *: point of attachment. Trp(7-Me) = Cc1cccc2c(C[C@H](N)C(=O)O)c[nH]c12; C20 diacid = O=C(O)CCCCCCCCCCCCCCCCCCC(=O)*; γGlu = O=C(O)[C@H](CCC(=O)[*:2])N[*:1]; NMeH = CN[C@@H](Cc1c[nH]cn1)C(=O)O; Nle = CCCC[C@H](N)C(=O)O; β3hA = C[C@H](N)CC(=O)O; AEEA = NCCOCCOCC(=O)O; βAla = NCCC(=O)O

Experiments:
[1] = Food intake and body weight after subcutaneous administration in mice, 16 hours (Example A-2b); format: in vivo; conditions: male C57BL/6J mice, single subcutaneous dose, peptide 500 nmol/kg, high fat diet
From the text: Male C57BL/6J mice, approximately 10 weeks old (Jackson Laboratory), were group housed in a 12-h light cycle room (6:00 AM on, 6:00 PM off) upon arrival and acclimated to the facility for a minimum of 1 week prior to the study. Animals were provided standard rodent chow (PicoLab Rodent Diet, 5053) ad libitum. Animals were single caged for a minimum of 3 days prior to the study. During the period prior to the study day, mice were exposed to one pellet of high fat diet (Research Diets D12492i) to avoid any effects of novelty in the study. On three separate days during this run-in period, mice were given one dose of phosphate-buffered saline (PBS; 5 mL/kg) by subcutaneous injection to acclimate them to the procedure. For baseline measures, pre-weighed meals of standard rodent chow were provided to each animal following acclimation dosing at 3:30 PM, and body weight was recorded. The next morning at 9:30 AM, food intake and body weight measurements were recorded at 16 hours following the presentation of the pre-weighed meal. These measurements and the resulting body weight changes were then used to assign mice to balanced cohorts. On the day of the study, mice were weighed and given a subcutaneous dose of either vehicle (PBS, 5 mL/kg; pH 5.0-8.5) or a peptide of the disclosure (500 nmol/kg; pH 5.0-8.5). Following dosing, a pre-weighed high fat diet was provided. Food intake and body weight measurements were taken at 16 hours following the provision of the pre-weighed high fat diet. […] Table 6 below describes the percent reduction in food intake and the percent body weight (BW) change with peptides as measured relative to the vehicle group.

[2] = Pharmacokinetics after intravenous peptide administration in mice; parameters: species or system C57BL/6 mice; conditions: in vivo
Description: GPR-10 and peptides were dosed IV at 2 mg/kg as a formulation of 0.4 mg/mL in […]+65% water (pH 6-7).

human GRP receptors = target: T1, human GRP receptors (Homo sapiens, UniProt P30550); test: IP1 GRPR activity: HTRF IP1-Gq assay in U2OS cells stably expressing human GRP receptors; format: cell-based; conditions: 90 minutes incubation, read-out: hIP1 GRPR EC50
T1 construct: host or cells: U2OS
Description: U2OS cells stably expressing human GRP receptors (DiscoverX, #93-0229C3) were cultured according to manufacturer's instructions. Cells were cultured to […], then collected using AccuTase (Innovative Cell Technologies, #AT104). Cells were washed and plated on a poly-D-lysine-coated 384-well plate (ThermoFisher, #A3890401) at a density of 2,500 cells/well in […] assay buffer (AssayComplete Cell Plating 5 Reagent, DiscoverX #93-0563R5), then incubated overnight at 37° C. and 5% C02. The following morning, a homogenous time-resolved fluorescence (HTRF) assay was performed in a 384-well plate format using the IP1-Gq assay kit (Cisbio, 62IPAPEB). Test compounds were made as a stock in DMSO, then serially diluted to generate 10-point dose response curves in IP1 stimulation buffer. Five microliters of the prepared compounds were then added to the plate containing cells and assay buffer in duplicate, and the cells were incubated at 37° C. and 5% CO2 for 90 minutes. Following compound incubation, […] of IP1 lysis/detection buffer (prepared according to manufacturer's instructions) was added to each well, and the plates were incubated at room temperature for 1 hour. HTRF signals were measured using a plate reader (ClarioSTAR), calculating the ratio between emissions at 665 nm and 620 nm (HTRF ratio). HTRF ratio for positive (Max, […]; SEQ ID NO. 45) and negative (Min, DMSO) controls were used to normalize HTRF data and generate values for % activity. EC50 and Max activity values were determined using a standard 4-parameter fit using GraphPad Prism.

physchem = format: physicochemical; conditions: pH 8
Description: Solubility was measured in an appropriate buffer as follows. A known amount of compound, e.g., 20 mg, was placed in a vessel equipped with a stirring bar. A measured amount of buffer (e.g., 200-400 μL of 200 mM phosphate buffer) was added, and in some cases, additional surfactants, e.g., polysorbate 80 (PS80), polyethylene glycol (15)-hydroxystearate (Solutol® HS15), etc., were added. A measured amount of purified water (e.g., 1.6 mL) was added, and the pH was adjusted to the desired pH, e.g., pH 8, by addition of 0.5 N aqueous NaOH or 0.5 N aqueous HCl. The volume of added acid or base was recorded. The mixture was stirred at 300 rpm for 10 min. Additional purified water was added to reach a given volume, e.g., 4 mL, of solution. After stirring the sample at 300 rpm at room temperature for 1 h or 24 h, the appearance was observed and the pH measured.

[3] = mouse, C57BL/6 mice, IV 2 mg/kg, formulation of 0.4 mg/mL, read-out: CL
[4] = mouse, C57BL/6 mice, IV 2 mg/kg, formulation of 0.4 mg/mL, read-out: T1/2 (converted)

T1 sequence (P30550 whole entry): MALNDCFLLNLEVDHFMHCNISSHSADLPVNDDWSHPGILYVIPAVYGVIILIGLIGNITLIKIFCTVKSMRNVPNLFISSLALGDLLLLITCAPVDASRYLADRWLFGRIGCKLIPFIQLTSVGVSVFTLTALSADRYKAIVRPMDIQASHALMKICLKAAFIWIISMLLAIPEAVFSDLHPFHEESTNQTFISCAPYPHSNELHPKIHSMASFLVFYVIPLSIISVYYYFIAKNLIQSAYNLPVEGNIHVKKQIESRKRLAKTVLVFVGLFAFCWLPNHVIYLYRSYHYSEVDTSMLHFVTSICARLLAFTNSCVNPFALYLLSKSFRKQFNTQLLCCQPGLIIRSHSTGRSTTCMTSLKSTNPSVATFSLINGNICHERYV

Compound	clearance [2, 3] [mL/min/kg]	half-life [2, 4] [h]	EC50 (human GRP receptors) [nM]	clearance ([2]; C57BL/6, mouse, iv, 2 mg/kg) [mL/min/kg]	half-life ([2]; C57BL/6, mouse, iv, 2 mg/kg) [h]	solubility at 24 h (physchem) [µg/mL]	% Body Weight Change at 16 hours (compared with vehicle) [1] [%]	% Reduction in Cumulative Food Intake over 16 hours (compared with vehicle) [1] [%]
CCCC[C@H](NC(=O)[C@H](CC(C)C)NC(=O)[C@H](Cc1c[nH]cn1)NC(=O)CCNC(=O)[C@@H](NC(=O)[C@H](C)NC(=O)[C@H](Cc1c[nH]c2ccccc12)NC(=O)[C@H](Cc1c[nH]cn1)NC(=O)[C@H](CCC(N)=O)NC(=O)CNC(=O)COCCOCCNC(=O)COCCOCCNC(=O)CC[C@H](NC(=O)CCCCCCCCCCCCCCCCCCC(=O)O)C(=O)O)C(C)C)C(N)=O [Peptide 241, Eicosanedioyl-γGlu-OEG-OEG-Gly-Gln-His-Trp-Ala-Val-β-Ala-His-Leu-Nle-NH2] ({C20 diacid-γGlu-AEEA-AEEA}-GQHWAV[βAla]HL[Nle]-NH2)	0.23	7	–	–	–	–	−10	74
CCCC[C@H](NC(=O)[C@H](CC(C)C)NC(=O)[C@H](Cc1c[nH]cn1)NC(=O)CCNC(=O)[C@@H](NC(=O)[C@H](C)NC(=O)[C@H](Cc1c[nH]c2c(C)cccc12)NC(=O)[C@H](Cc1c[nH]cn1)NC(=O)[C@H](CCCNC(=N)N)NC(=O)CNC(=O)COCCOCCNC(=O)COCCOCCNC(=O)CC[C@H](NC(=O)CCCCCCCCCCCCCCCCCCC(=O)O)C(=O)O)C(C)C)C(N)=O [Peptide 242, Eicosanedioyl-γGlu-OEG-OEG-Gly-Arg-His-7MethylTrp-Ala-Val-β-Ala-His-Leu-Nle-NH2] ({C20 diacid-γGlu-AEEA-AEEA}-GRH[Trp(7-Me)]AV[βAla]HL[Nle]-NH2)	–	–	–	–	–	–	−9	55
CCCC[C@H](NC(=O)[C@H](CC(C)C)NC(=O)[C@H](Cc1c[nH]cn1)NC(=O)C[C@H](C)NC(=O)[C@@H](NC(=O)[C@H](C)NC(=O)[C@H](Cc1c[nH]c2c(C)cccc12)NC(=O)[C@H](Cc1c[nH]cn1)NC(=O)[C@H](CCC(=O)O)NC(=O)CNC(=O)COCCOCCNC(=O)COCCOCCNC(=O)CC[C@H](NC(=O)CC[C@H](NC(=O)CCCCCCCCCCCCCCCCCCC(=O)O)C(=O)O)C(=O)O)C(C)C)C(N)=O [Peptide 247, Eicosanedioyl-γGlu-γGlu-OEG-OEG-Gly-Glu-His-7MeTrp-Ala-Val-BABA-His-Leu-Nle-NH2] ({C20 diacid-γGlu-γGlu-AEEA-AEEA}-GEH[Trp(7-Me)]AV[β3hA]HL[Nle]-NH2)	–	–	1.8	0.18	7.5	4200 (≈ 2070 µM)	−11	65
CCCC[C@H](NC(=O)[C@H](CC(C)C)NC(=O)[C@H](Cc1c[nH]cn1)N(C)C(=O)C[C@H](C)NC(=O)[C@@H](NC(=O)[C@H](C)NC(=O)[C@H](Cc1c[nH]c2c(C)cccc12)NC(=O)[C@H](Cc1c[nH]cn1)NC(=O)[C@H](CCC(=O)O)NC(=O)[C@H](CO)NC(=O)COCCOCCNC(=O)COCCOCCNC(=O)CC[C@H](NC(=O)CC[C@H](NC(=O)CCCCCCCCCCCCCCCCCCC(=O)O)C(=O)O)C(=O)O)C(C)C)C(N)=O [Peptide 277, Eicosanedioyl-γGlu-γGlu-OEG-OEG-Ser-Glu-His-7MeTrp-Ala-Val-BABA-NMeHis-Leu-Nle-NH2] ({C20 diacid-γGlu-γGlu-AEEA-AEEA}-SEH[Trp(7-Me)]AV[β3hA][NMeH]L[Nle]-NH2)	–	–	–	–	–	–	−12	69

Second part, led by results:

clearance [2, 3] [mL/min/kg]	half-life [2, 4] [h]	EC50 (human GRP receptors) [nM]	clearance ([2]; C57BL/6, mouse, iv, 2 mg/kg) [mL/min/kg]	half-life ([2]; C57BL/6, mouse, iv, 2 mg/kg) [h]	solubility at 24 h (physchem) [µg/mL]	Compound	% Body Weight Change at 16 hours (compared with vehicle) [1] [%]	% Reduction in Cumulative Food Intake over 16 hours (compared with vehicle) [1] [%]
0.12	9.7	–	–	–	–	CCCC[C@H](NC(=O)[C@H](CC(C)C)NC(=O)[C@H](Cc1c[nH]cn1)NC(=O)CCNC(=O)[C@@H](NC(=O)[C@H](C)NC(=O)[C@H](Cc1c[nH]c2c(C)cccc12)NC(=O)[C@H](Cc1c[nH]cn1)NC(=O)[C@H](CCC(=O)O)NC(=O)[C@@H](CO)NC(=O)[C@H](CCC(=O)O)NC(=O)COCCOCCNC(=O)COCCOCCNC(=O)CC[C@H](NC(=O)CC[C@H](NC(=O)CCCCCCCCCCCCCCCCCCC(=O)O)C(=O)O)C(=O)O)C(C)C)C(N)=O [Peptide 248, Eicosanedioyl-γGlu-γGlu-OEG-OEG-Glu-D-Ser-Glu-His-7MeTrp-Ala-Val-β-Ala-His-Leu-Nle-NH2] ({C20 diacid-γGlu-γGlu-AEEA-AEEA}-E[dS]EH[Trp(7-Me)]AV[βAla]HL[Nle]-NH2)	−9	54
–	–	10.8	–	–	–	CCCC[C@H](NC(=O)[C@H](CC(C)C)NC(=O)[C@H](Cc1c[nH]cn1)N(C)C(=O)C[C@H](C)NC(=O)[C@@H](NC(=O)[C@H](C)NC(=O)[C@H](Cc1c[nH]c2c(C)cccc12)NC(=O)[C@H](Cc1c[nH]cn1)NC(=O)[C@H](CC(=O)O)NC(=O)CNC(=O)COCCOCCNC(=O)COCCOCCNC(=O)CC[C@H](NC(=O)CC[C@H](NC(=O)CCCCCCCCCCCCCCCCCCC(=O)O)C(=O)O)C(=O)O)C(C)C)C(N)=O [Peptide 278, Eicosanedioyl-γGlu-γGlu-OEG-OEG-Gly-Asp-His-7MeTrp-Ala-Val-BABA-NMeHis-Leu-Nle-NH2] ({C20 diacid-γGlu-γGlu-AEEA-AEEA}-GDH[Trp(7-Me)]AV[β3hA][NMeH]L[Nle]-NH2)	−12	63
